Key:
Assay in all cases: relative viability (nuclei count vs DMSO), 5 days (fraction); higher = more cells survive
[1] = compound: CCC1=CN=CN=C1N2CCN(CC2)CC3=NC4=C(N3)C=C(C=C4)C(F)(F)F + CC(=O)c1c(C)c2cnc(Nc3ccc(N4CCNCC4)cn3)nc2n(C2CCCC2)c1=O [Palbociclib] (partner 0.5 µM)
How it was run: (§1)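 Relative viability is defined as nuclei in treated wells over nuclei in vehicle wells. Duplicate plates were run and medians reported. Lung cancer cell lines in 1536-well plates were dosed by pin tool one day after seeding, with one drug or with a fixed anchor-drug dose plus five library-drug doses (not always all listed) in √10 steps, and nuclei were counted after 5 days.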

[2] = compound: CCn1c(-c2nonc2N)nc2cnc(Oc3cccc(NC(=O)c4ccc(OCCN5CCOCC5)cc4)c3)cc21 + N=C(N)NC(=N)NCCc1ccccc1 [Phenformin] (partner 250 µM)
How it was run: as §1

[3] = compound: CCn1c(-c2nonc2N)nc2cnc(Oc3cccc(NC(=O)c4ccc(OCCN5CCOCC5)cc4)c3)cc21 + O=C(c1cc(Cc2n[nH]c(=O)c3ccccc23)ccc1F)N1CCN(C(=O)C2CC2)CC1 [Olaparib] (partner 8 µM)
How it was run: as §1

Mirin + Phenformin = compound: N=C1NC(=O)/C(=C/c2ccc(O)cc2)S1 [Mirin] + N=C(N)NC(=N)NCCc1ccccc1 [Phenformin] (partner 250 µM)
How it was run: as §1

## SW 1573
[1]; first compound 0.04 µM
  relative viability: 0.345
[1]; first compound 0.1265 µM
  relative viability: 0.406
[1]; first compound 0.4 µM
  relative viability: 0.384
[1]; first compound 1.265 µM
  relative viability: 0.262
[1]; first compound 4 µM
  relative viability: 0.32
[2]; first compound 0.04 µM
  relative viability: 0.513
[2]; first compound 0.1265 µM
  relative viability: 0.345
[2]; first compound 0.4 µM
  relative viability: 0.344
[2]; first compound 1.265 µM
  relative viability: 0.282
[2]; first compound 4 µM
  relative viability: 0.154
[3]; first compound 0.04 µM
  relative viability: 0.594
[3]; first compound 0.1265 µM
  relative viability: 0.4
[3]; first compound 0.4 µM
  relative viability: 0.287
[3]; first compound 1.265 µM
  relative viability: 0.24
[3]; first compound 4 µM
  relative viability: 0.183
Mirin + Phenformin; first compound 0.25 µM
  relative viability: 0.384
Mirin + Phenformin; first compound 0.7906 µM
  relative viability: 0.413
Mirin + Phenformin; first compound 2.5 µM
  relative viability: 0.378
Mirin + Phenformin; first compound 7.906 µM
  relative viability: 0.385
Mirin + Phenformin; first compound 25 µM
  relative viability: 0.262

## NCI-H1975
[1]; first compound 0.04 µM
  relative viability: 0.62
[1]; first compound 0.1265 µM
  relative viability: 0.479
[1]; first compound 0.4 µM
  relative viability: 0.568
[1]; first compound 1.265 µM
  relative viability: 0.461
[1]; first compound 4 µM
  relative viability: 0.577
[2]; first compound 0.04 µM
  relative viability: 0.343
[2]; first compound 0.1265 µM
  relative viability: 0.277
[2]; first compound 0.4 µM
  relative viability: 0.208
[2]; first compound 1.265 µM
  relative viability: 0.186
[2]; first compound 4 µM
  relative viability: 0.168
[3]; first compound 0.04 µM
  relative viability: 0.9
[3]; first compound 0.1265 µM
  relative viability: 0.772
[3]; first compound 0.4 µM
  relative viability: 0.623
[3]; first compound 1.265 µM
  relative viability: 0.389
[3]; first compound 4 µM
  relative viability: 0.271
Mirin + Phenformin; first compound 0.25 µM
  relative viability: 0.448
Mirin + Phenformin; first compound 0.7906 µM
  relative viability: 0.375
Mirin + Phenformin; first compound 2.5 µM
  relative viability: 0.452
Mirin + Phenformin; first compound 7.906 µM
  relative viability: 0.452
Mirin + Phenformin; first compound 25 µM
  relative viability: 0.425

## NCI-H522
[1]; first compound 0.04 µM
  relative viability: 1.02
[1]; first compound 0.1265 µM
  relative viability: 1.11
[1]; first compound 0.4 µM
  relative viability: 0.956
[1]; first compound 1.265 µM
  relative viability: 0.818
[1]; first compound 4 µM
  relative viability: 0.916
[2]; first compound 0.04 µM
  relative viability: 0.561
[2]; first compound 0.1265 µM
  relative viability: 0.613
[2]; first compound 0.4 µM
  relative viability: 0.6
[2]; first compound 1.265 µM
  relative viability: 0.522
[2]; first compound 4 µM
  relative viability: 0.507
[3]; first compound 0.04 µM
  relative viability: 0.661
[3]; first compound 0.1265 µM
  relative viability: 0.614
[3]; first compound 0.4 µM
  relative viability: 0.665
[3]; first compound 1.265 µM
  relative viability: 0.514
[3]; first compound 4 µM
  relative viability: 0.554
Mirin + Phenformin; first compound 0.25 µM
  relative viability: 0.608
Mirin + Phenformin; first compound 0.7906 µM
  relative viability: 0.621
Mirin + Phenformin; first compound 2.5 µM
  relative viability: 0.6
Mirin + Phenformin; first compound 7.906 µM
  relative viability: 0.574
Mirin + Phenformin; first compound 25 µM
  relative viability: 0.559

## SK-LU-1
[1]; first compound 0.04 µM
  relative viability: 0.412
[1]; first compound 0.1265 µM
  relative viability: 0.394
[1]; first compound 0.4 µM
  relative viability: 0.41
[1]; first compound 1.265 µM
  relative viability: 0.26
[1]; first compound 4 µM
  relative viability: 0.418
[2]; first compound 0.04 µM
  relative viability: 0.488
[2]; first compound 0.1265 µM
  relative viability: 0.409
[2]; first compound 0.4 µM
  relative viability: 0.333
[2]; first compound 1.265 µM
  relative viability: 0.251
[2]; first compound 4 µM
  relative viability: 0.238
[3]; first compound 0.04 µM
  relative viability: 0.571
[3]; first compound 0.1265 µM
  relative viability: 0.305
[3]; first compound 0.4 µM
  relative viability: 0.327
[3]; first compound 1.265 µM
  relative viability: 0.235
[3]; first compound 4 µM
  relative viability: 0.257
Mirin + Phenformin; first compound 0.25 µM
  relative viability: 0.643
Mirin + Phenformin; first compound 0.7906 µM
  relative viability: 0.486
Mirin + Phenformin; first compound 2.5 µM
  relative viability: 0.522
Mirin + Phenformin; first compound 7.906 µM
  relative viability: 0.497
Mirin + Phenformin; first compound 25 µM
  relative viability: 0.44

## NCI-H460
[1]; first compound 0.04 µM
  relative viability: 0.145
[1]; first compound 0.1265 µM
  relative viability: 0.199
[1]; first compound 0.4 µM
  relative viability: 0.174
[1]; first compound 1.265 µM
  relative viability: 0.152
[1]; first compound 4 µM
  relative viability: 0.166
[2]; first compound 0.04 µM
  relative viability: 0.664
[2]; first compound 0.1265 µM
  relative viability: 0.432
[2]; first compound 0.4 µM
  relative viability: 0.295
[2]; first compound 1.265 µM
  relative viability: 0.0979
[2]; first compound 4 µM
  relative viability: 0.0635
[3]; first compound 0.04 µM
  relative viability: 0.545
[3]; first compound 0.1265 µM
  relative viability: 0.383
[3]; first compound 0.4 µM
  relative viability: 0.458
[3]; first compound 1.265 µM
  relative viability: 0.085
[3]; first compound 4 µM
  relative viability: 0.138
Mirin + Phenformin; first compound 0.25 µM
  relative viability: 0.551
Mirin + Phenformin; first compound 0.7906 µM
  relative viability: 0.485
Mirin + Phenformin; first compound 2.5 µM
  relative viability: 0.5
Mirin + Phenformin; first compound 7.906 µM
  relative viability: 0.522
Mirin + Phenformin; first compound 25 µM
  relative viability: 0.623

## LCLC-103H
[1]; first compound 0.04 µM
  relative viability: 0.501
[1]; first compound 0.1265 µM
  relative viability: 0.471
[1]; first compound 0.4 µM
  relative viability: 0.436
[1]; first compound 1.265 µM
  relative viability: 0.485
[1]; first compound 4 µM
  relative viability: 0.448
[2]; first compound 0.04 µM
  relative viability: 0.421
[2]; first compound 0.1265 µM
  relative viability: 0.286
[2]; first compound 0.4 µM
  relative viability: 0.182
[2]; first compound 1.265 µM
  relative viability: 0.216
[2]; first compound 4 µM
  relative viability: 0.222
[3]; first compound 0.04 µM
  relative viability: 0.908
[3]; first compound 0.1265 µM
  relative viability: 0.816
[3]; first compound 0.4 µM
  relative viability: 0.712
[3]; first compound 1.265 µM
  relative viability: 0.717
[3]; first compound 4 µM
  relative viability: 0.715
Mirin + Phenformin; first compound 0.25 µM
  relative viability: 0.342
Mirin + Phenformin; first compound 0.7906 µM
  relative viability: 0.345
Mirin + Phenformin; first compound 2.5 µM
  relative viability: 0.324
Mirin + Phenformin; first compound 7.906 µM
  relative viability: 0.387
Mirin + Phenformin; first compound 25 µM
  relative viability: 0.358

## HCC-78
[1]; first compound 0.04 µM
  relative viability: 0.447
[1]; first compound 0.1265 µM
  relative viability: 0.461
[1]; first compound 0.4 µM
  relative viability: 0.477
[1]; first compound 1.265 µM
  relative viability: 0.451
[1]; first compound 4 µM
  relative viability: 0.468
[2]; first compound 0.04 µM
  relative viability: 0.789
[2]; first compound 0.1265 µM
  relative viability: 0.934
[2]; first compound 1.265 µM
  relative viability: 0.766
[2]; first compound 4 µM
  relative viability: 0.881
[3]; first compound 0.04 µM
  relative viability: 0.789
[3]; first compound 0.1265 µM
  relative viability: 0.97
[3]; first compound 1.265 µM
  relative viability: 0.832
[3]; first compound 4 µM
  relative viability: 0.946
Mirin + Phenformin; first compound 0.25 µM
  relative viability: 0.661
Mirin + Phenformin; first compound 0.7906 µM
  relative viability: 0.616
Mirin + Phenformin; first compound 2.5 µM
  relative viability: 0.867
Mirin + Phenformin; first compound 7.906 µM
  relative viability: 0.571
Mirin + Phenformin; first compound 25 µM
  relative viability: 0.793

## NCI-H1915
[1]; first compound 0.04 µM
  relative viability: 0.478
[1]; first compound 0.1265 µM
  relative viability: 0.525
[1]; first compound 0.4 µM
  relative viability: 0.515
[1]; first compound 1.265 µM
  relative viability: 0.451
[1]; first compound 4 µM
  relative viability: 0.522
[2]; first compound 0.04 µM
  relative viability: 0.38
[2]; first compound 0.1265 µM
  relative viability: 0.355
[2]; first compound 0.4 µM
  relative viability: 0.285
[2]; first compound 1.265 µM
  relative viability: 0.188
[2]; first compound 4 µM
  relative viability: 0.169
[3]; first compound 0.04 µM
  relative viability: 0.252
[3]; first compound 0.1265 µM
  relative viability: 0.265
[3]; first compound 0.4 µM
  relative viability: 0.251
[3]; first compound 1.265 µM
  relative viability: 0.185
[3]; first compound 4 µM
  relative viability: 0.167
Mirin + Phenformin; first compound 0.25 µM
  relative viability: 0.353
Mirin + Phenformin; first compound 2.5 µM
  relative viability: 0.364
Mirin + Phenformin; first compound 7.906 µM
  relative viability: 0.356
Mirin + Phenformin; first compound 25 µM
  relative viability: 0.386

— the supplement of paper PMC10307832
